Data reported in patent US20250263459A1, “STABILIZED PACAP PEPTIDE” (SENJU PHARMACEUTICAL CO., LTD., priority 2019, published 2025).
Non-standard residues stand in square brackets, D forms with d. Residues, ends and D or L forms follow the SMILES beside them. Ala(1H-tetrazol-5-yl) = N[C@@H](Cc1nnn[nH]1)C(=O)O

Experiment: Stability test 1, sample preparation 5: survival rate of peptide in Tris buffer (pH 7.0) after storage, HPLC
Format: physicochemical
Details: 100 μM peptide; for survival rate after correction for water, 40° C. 4 week / survival rate after correction for water, 40° C. 8 week: Tris buffer pH 7.0, 40° C.; for survival rate after correction for water, 40° C. 4 week: 4 weeks (Table 13); for survival rate after correction for water, 40° C. 8 week: 8 weeks (Table 13); for survival rate after correction for water, 60° C. 1 week / survival rate after correction for water, 60° C. 2 week: Tris buffer pH 7.0, 60° C.; for survival rate after correction for water, 60° C. 1 week: 1 week (Table 13); for survival rate after correction for water, 60° C. 2 week: 2 weeks (Table 13)
Protocol: The peak area value for the peptide in the chromatogram was calculated, and the survival rate (survival rate before correction for water) was calculated using formula (2). The survival rate after correction for water was also calculated from the survival rate before correction for water using formula (3) to take into account the permeability of the container.
The prepared peptide solutions were incubated for 4 weeks or 8 weeks in a 40° C. thermostatic bath, and for one week or 2 weeks in a thermostatic bath at 60° C., to obtain stored samples.
The following gradient time was used only for peptide 30.

SMILES | survival rate after correction for water, 40° C. 4 week | survival rate after correction for water, 40° C. 8 week | survival rate after correction for water, 60° C. 1 week | survival rate after correction for water, 60° C. 2 week
CC(=O)N[C@@H](Cc1c[nH]cn1)C(=O)N[C@@H](CO)C(=O)N[C@@H](Cc1nnn[nH]1)C(=O)NCC(=O)N[C@@H](C)C(=O)N[C@@H](Cc1ccccc1)C(=O)N[C@H](C(=O)N[C@@H](Cc1nnn[nH]1)C(=O)N[C@@H](CO)C(=O)N[C@@H](Cc1ccc(O)cc1)C(=O)N[C@@H](CO)C(=O)N[C@@H](CCCNC(=N)N)C(=O)N[C@@H](Cc1ccc(O)cc1)C(=O)N[C@@H](CCCNC(=N)N)C(=O)N[C@@H](CCCCN)C(=O)N[C@@H](CCC(N)=O)C(=O)N[C@@H](CC(C)C)C(=O)N[C@@H](C)C(=O)N[C@H](C(=O)N[C@@H](CCCCN)C(=O)N[C@@H](CCCCN)C(=O)N[C@@H](Cc1ccc(O)cc1)C(=O)N[C@@H](CC(C)C)C(=O)N[C@@H](C)C(=O)N[C@@H](C)C(=O)N[C@H](C(=O)N[C@@H](CC(C)C)C(N)=O)C(C)C)C(C)C)[C@@H](C)O [Peptide 23, HSTzGA FTTzSY SRYRK QLAVK KYLAA VL] (Ac-HS[Ala(1H-tetrazol-5-yl)]GAFT[Ala(1H-tetrazol-5-yl)]SYSRYRKQLAVKKYLAAVL-NH2) | 87.7% | 89.1% | 96.4% | 91.3%
CC[C@H](C)[C@H](NC(=O)CNC(=O)[C@H](Cc1nnn[nH]1)NC(=O)[C@H](CO)NC(=O)[C@H](Cc1c[nH]cn1)NC(C)=O)C(=O)N[C@@H](Cc1ccccc1)C(=O)N[C@@H](C)C(=O)N[C@@H](Cc1nnn[nH]1)C(=O)N[C@@H](CO)C(=O)N[C@@H](Cc1ccc(O)cc1)C(=O)N[C@@H](CO)C(=O)N[C@@H](CCCNC(=N)N)C(=O)N[C@@H](Cc1ccc(O)cc1)C(=O)N[C@@H](CCCNC(=N)N)C(=O)N[C@@H](CCCCN)C(=O)N[C@@H](CCC(N)=O)C(=O)N[C@@H](CC(C)C)C(=O)N[C@@H](C)C(=O)N[C@H](C(=O)N[C@@H](CCCCN)C(=O)N[C@@H](CCCCN)C(=O)N[C@@H](Cc1ccc(O)cc1)C(=O)N[C@@H](CC(C)C)C(=O)N[C@@H](C)C(=O)N[C@@H](C)C(=O)N[C@H](C(=O)N[C@@H](CC(C)C)C(N)=O)C(C)C)C(C)C [Peptide 24, HSTzGI FATzSY SRYRK QLAVK KYLAA VL] (Ac-HS[Ala(1H-tetrazol-5-yl)]GIFA[Ala(1H-tetrazol-5-yl)]SYSRYRKQLAVKKYLAAVL-NH2) | 90.5% | 83.5% | 99.5% | 91.1%
CC[C@H](C)[C@H](NC(=O)CNC(=O)[C@H](Cc1nnn[nH]1)NC(=O)[C@H](C)NC(=O)[C@H](Cc1c[nH]cn1)NC(C)=O)C(=O)N[C@@H](Cc1ccccc1)C(=O)N[C@@H](C)C(=O)N[C@@H](Cc1nnn[nH]1)C(=O)N[C@@H](CO)C(=O)N[C@@H](Cc1ccc(O)cc1)C(=O)N[C@@H](CO)C(=O)N[C@@H](CCCNC(=N)N)C(=O)N[C@@H](Cc1ccc(O)cc1)C(=O)N[C@@H](CCCNC(=N)N)C(=O)N[C@@H](CCCCN)C(=O)N[C@@H](CCC(N)=O)C(=O)N[C@@H](CC(C)C)C(=O)N[C@@H](C)C(=O)N[C@H](C(=O)N[C@@H](CCCCN)C(=O)N[C@@H](CCCCN)C(=O)N[C@@H](Cc1ccc(O)cc1)C(=O)N[C@@H](CC(C)C)C(=O)N[C@@H](C)C(=O)N[C@@H](C)C(=O)N[C@H](C(=O)N[C@@H](CC(C)C)C(N)=O)C(C)C)C(C)C [Peptide 25, HATzGI FATzSY SRYRK QLAVK KYLAA VL] (Ac-HA[Ala(1H-tetrazol-5-yl)]GIFA[Ala(1H-tetrazol-5-yl)]SYSRYRKQLAVKKYLAAVL-NH2) | 91.3% | 85.1% | 97.3% | 93.1%
CC[C@H](C)[C@H](NC(=O)CNC(=O)[C@H](Cc1nnn[nH]1)NC(=O)[C@H](C)NC(=O)[C@H](Cc1c[nH]cn1)NC(C)=O)C(=O)N[C@@H](Cc1ccccc1)C(=O)N[C@H](C(=O)N[C@@H](Cc1nnn[nH]1)C(=O)N[C@@H](CO)C(=O)N[C@@H](Cc1ccc(O)cc1)C(=O)N[C@@H](CO)C(=O)N[C@@H](CCCNC(=N)N)C(=O)N[C@@H](Cc1ccc(O)cc1)C(=O)N[C@@H](CCCNC(=N)N)C(=O)N[C@@H](CCCCN)C(=O)N[C@@H](C)C(=O)N[C@@H](CC(C)C)C(=O)N[C@@H](C)C(=O)N[C@H](C(=O)N[C@@H](CCCCN)C(=O)N[C@@H](CCCCN)C(=O)N[C@@H](Cc1ccc(O)cc1)C(=O)N[C@@H](CC(C)C)C(=O)N[C@@H](C)C(=O)N[C@@H](C)C(=O)N[C@H](C(=O)N[C@@H](CC(C)C)C(N)=O)C(C)C)C(C)C)[C@@H](C)O [Peptide 26, HATzGI FITzSY SRYRK ALAVK KYLAA VL] (Ac-HA[Ala(1H-tetrazol-5-yl)]GIFT[Ala(1H-tetrazol-5-yl)]SYSRYRKALAVKKYLAAVL-NH2) | 93.2% | 89.7% | 97.9% | 94.4%
CC[C@H](C)[C@H](NC(=O)CNC(=O)[C@H](Cc1nnn[nH]1)NC(=O)[C@H](CO)NC(=O)[C@H](Cc1c[nH]cn1)NC(C)=O)C(=O)N[C@@H](Cc1ccccc1)C(=O)N[C@@H](C)C(=O)N[C@@H](Cc1nnn[nH]1)C(=O)N[C@@H](CO)C(=O)N[C@@H](Cc1ccc(O)cc1)C(=O)N[C@@H](CO)C(=O)N[C@@H](CCCNC(=N)N)C(=O)N[C@@H](Cc1ccc(O)cc1)C(=O)N[C@@H](CCCNC(=N)N)C(=O)N[C@@H](CCCCN)C(=O)N[C@@H](C)C(=O)N[C@@H](CC(C)C)C(=O)N[C@@H](C)C(=O)N[C@H](C(=O)N[C@@H](CCCCN)C(=O)N[C@@H](CCCCN)C(=O)N[C@@H](Cc1ccc(O)cc1)C(=O)N[C@@H](CC(C)C)C(=O)N[C@@H](C)C(=O)N[C@@H](C)C(=O)N[C@H](C(=O)N[C@@H](CC(C)C)C(N)=O)C(C)C)C(C)C [Peptide 28, HSTzGI FATzSY SRYRK ALAVK KYLAA VL] (Ac-HS[Ala(1H-tetrazol-5-yl)]GIFA[Ala(1H-tetrazol-5-yl)]SYSRYRKALAVKKYLAAVL-NH2) | 94.1% | 89.8% | 98.6% | 90.9%
CC[C@H](C)[C@H](NC(=O)CNC(=O)[C@H](Cc1nnn[nH]1)NC(=O)[C@H](CO)NC(=O)[C@H](Cc1c[nH]cn1)NC(C)=O)C(=O)N[C@@H](Cc1ccccc1)C(=O)N[C@@H](C)C(=O)N[C@@H](Cc1nnn[nH]1)C(=O)N[C@@H](CO)C(=O)N[C@@H](Cc1ccc(O)cc1)C(=O)N[C@@H](CO)C(=O)N[C@@H](CCCNC(=N)N)C(=O)N[C@@H](Cc1ccc(O)cc1)C(=O)N[C@@H](CCCNC(=N)N)C(=O)N[C@@H](CCCCN)C(=O)N[C@@H](CCC(N)=O)C(=O)N[C@@H](C)C(=O)N[C@@H](C)C(=O)N[C@H](C(=O)N[C@@H](CCCCN)C(=O)N[C@@H](CCCCN)C(=O)N[C@@H](Cc1ccc(O)cc1)C(=O)N[C@@H](CC(C)C)C(=O)N[C@@H](C)C(=O)N[C@@H](C)C(=O)N[C@H](C(=O)N[C@@H](CC(C)C)C(N)=O)C(C)C)C(C)C [Peptide 29, HSTzGI FATzSY SRYRK QAAVK KYLAA VL] (Ac-HS[Ala(1H-tetrazol-5-yl)]GIFA[Ala(1H-tetrazol-5-yl)]SYSRYRKQAAVKKYLAAVL-NH2) | 86.1% | 77.4% | 96.3% | 91.9%
CC[C@H](C)[C@H](NC(=O)CNC(=O)[C@H](Cc1nnn[nH]1)NC(=O)[C@H](C)NC(=O)[C@H](Cc1c[nH]cn1)NC(C)=O)C(=O)N[C@@H](Cc1ccccc1)C(=O)N[C@@H](C)C(=O)N[C@@H](Cc1nnn[nH]1)C(=O)N[C@@H](C)C(=O)N[C@@H](Cc1ccc(O)cc1)C(=O)N[C@@H](CO)C(=O)N[C@@H](CCCNC(=N)N)C(=O)N[C@@H](Cc1ccc(O)cc1)C(=O)N[C@@H](CCCNC(=N)N)C(=O)N[C@@H](CCCCN)C(=O)N[C@@H](C)C(=O)N[C@@H](C)C(=O)N[C@@H](C)C(=O)N[C@H](C(=O)N[C@@H](CCCCN)C(=O)N[C@@H](CCCCN)C(=O)N[C@@H](Cc1ccc(O)cc1)C(=O)N[C@@H](CC(C)C)C(=O)N[C@@H](C)C(=O)N[C@@H](C)C(=O)N[C@H](C(=O)N[C@@H](CC(C)C)C(N)=O)C(C)C)C(C)C [Peptide 30, HATzGI FATzAY SRYRK AAAVK KYLAA VL] (Ac-HA[Ala(1H-tetrazol-5-yl)]GIFA[Ala(1H-tetrazol-5-yl)]AYSRYRKAAAVKKYLAAVL-NH2) | 91.5% | 83.4% | 96.7% | 93.7%
